Results published in publication PMC9785688 (Pharmaceutics, 2022).
Like-named read-outs stand apart in the source and are kept apart here.

How the values were obtained:
[1] = biological target: T1, P-glycoprotein (P-gp) function at the blood-brain barrier (BBB) (Rattus norvegicus, UniProt Q6PSM0); test: [^11C]metoclopramide brain PET imaging with kinetic modelling (Logan plot) in rats; type: in vivo; conditions: oral pretreatment of healthy Sprague Dawley rats (CBZ 45 mg/kg twice a day for 7 days; RIT 20 mg/kg 3 h before PET)
T1 construct: Kinetic modeling was performed to estimate the impact of these drugs on P-gp function at the BBB; from tissue; host or cells: blood-brain barrier (brain) of living Sprague Dawley rats, in vivo PET
Procedure: In animals of the CBZ group (n = 4), CBZ suspension was administered by oral gavage at a dose of 45 mg/kg, twice a day (8 A.M and 5 P.M) for 7 days before the PET imaging. Each animal received a total of 14 doses of CBZ before the PET experiment.
A RIT suspension (10 mg/mL) was freshly prepared prior to oral administration by adding 100 mg of RIT powder to 9.4 mL of water for injection. Animals of the RIT group (n = 4) received a single dose of 20 mg/kg of RIT 3 hours before the PET experiment.
PET acquisitions were performed in Baseline, CBZ and RIT pretreated animals (n = 4 per condition) using an Inveon microPET scanner (Siemens, Knoxville, TN, USA). Anesthesia was induced and thereafter maintained using 3.5% and 1.5–2.5% isoflurane in O2, respectively.
Images were reconstructed with the Fourier rebinning algorithm and the 3-dimensional ordered-subset expectation-maximization algorithm, including normalization, attenuation, scatter, and random corrections. […] Radioactivity was corrected for ^11C decay and expressed as standardized uptake value (SUV, unitless) after correction for injected dose and animal weight. […]
Kinetic modeling was also performed using PMOD software. […] Each individual IDIF was corrected by a group-specific, average whole-blood/plasma radioactivity ratio which was obtained from the arterial blood samples collected in the separate groups of animals (see above).

P-gp = conditions: cited from earlier work
[2] = parameters: method as in PMID 30630940; conditions: humans, at 30 min, microdose; cited from earlier work
[3] = rodents, at 30 min, microdose; cited from earlier work

T1 sequence (Q6PSM0 1-1272): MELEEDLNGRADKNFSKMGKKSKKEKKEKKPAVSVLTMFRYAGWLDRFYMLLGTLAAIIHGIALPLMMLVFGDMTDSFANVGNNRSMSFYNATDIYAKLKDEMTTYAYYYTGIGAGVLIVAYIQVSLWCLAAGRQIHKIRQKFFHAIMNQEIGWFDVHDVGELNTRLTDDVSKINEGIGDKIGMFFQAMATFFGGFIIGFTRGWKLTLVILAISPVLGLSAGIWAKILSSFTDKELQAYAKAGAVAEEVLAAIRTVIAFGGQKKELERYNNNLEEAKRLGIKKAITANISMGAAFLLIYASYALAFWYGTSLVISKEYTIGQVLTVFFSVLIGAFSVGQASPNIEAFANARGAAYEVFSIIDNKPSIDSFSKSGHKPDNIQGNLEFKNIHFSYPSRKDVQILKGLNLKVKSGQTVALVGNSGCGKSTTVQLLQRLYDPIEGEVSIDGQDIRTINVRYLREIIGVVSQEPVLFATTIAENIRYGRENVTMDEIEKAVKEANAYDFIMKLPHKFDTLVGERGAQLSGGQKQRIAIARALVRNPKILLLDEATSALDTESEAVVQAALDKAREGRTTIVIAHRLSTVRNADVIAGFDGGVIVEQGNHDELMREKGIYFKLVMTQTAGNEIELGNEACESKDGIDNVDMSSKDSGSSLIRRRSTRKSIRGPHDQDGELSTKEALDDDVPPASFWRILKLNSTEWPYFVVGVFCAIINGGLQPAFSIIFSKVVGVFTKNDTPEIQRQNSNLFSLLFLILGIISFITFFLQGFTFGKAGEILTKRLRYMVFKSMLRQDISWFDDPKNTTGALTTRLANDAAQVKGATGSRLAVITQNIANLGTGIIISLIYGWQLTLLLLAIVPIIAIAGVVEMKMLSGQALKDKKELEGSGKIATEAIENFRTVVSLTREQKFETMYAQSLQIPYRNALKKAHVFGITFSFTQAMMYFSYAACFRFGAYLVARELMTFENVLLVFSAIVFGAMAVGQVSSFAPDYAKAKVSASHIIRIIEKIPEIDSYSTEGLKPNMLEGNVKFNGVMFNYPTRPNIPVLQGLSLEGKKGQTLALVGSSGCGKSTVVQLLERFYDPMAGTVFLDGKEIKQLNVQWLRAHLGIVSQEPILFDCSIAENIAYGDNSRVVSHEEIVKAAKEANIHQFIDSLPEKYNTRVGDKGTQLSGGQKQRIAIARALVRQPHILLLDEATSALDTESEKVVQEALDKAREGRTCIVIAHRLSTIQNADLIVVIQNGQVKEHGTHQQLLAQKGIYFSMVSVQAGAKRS

Structure (SMILES) | Effect on P-gp function at the BBB (from [^11C]metoclopramide PET) [1] | P-gp inhibition in vitro (P-gp) | Fraction of parent [^11C]metoclopramide [2] | Fraction of parent [^11C]metoclopramide [3]
NC(=O)N1c2ccccc2C=Cc2ccccc21 [CBZ, carbamazepine] | does not substantially induce or inhibit | – | – | –
CC(C)c1nc(CN(C)C(=O)N[C@H](C(=O)N[C@@H](Cc2ccccc2)C[C@H](O)[C@H](Cc2ccccc2)NC(=O)OCc2cncs2)C(C)C)cs1 [RIT, ritonavir] | apparently behaving as an inhibitor | potent P-gp inhibitor | – | –
CCN(CC)CCNC(=O)c1cc(Cl)c(N)cc1O[11CH3] [[^11C]metoclopramide] | – | – | ~ 60% | ~ 10%
